This assay has as its target T1, GST-IQGAP1-C / His-Cdc42-Q61L (Homo sapiens, UniProt P46940).
T1 construct: the C-terminal half of IQGAP1 (comprising amino acids 864–1657) containing a GST-tag; made in house; host or cells: Escherichia coli (BL-21 for GST-IQGAP1-C)
T1 sequence (P46940 864-1657): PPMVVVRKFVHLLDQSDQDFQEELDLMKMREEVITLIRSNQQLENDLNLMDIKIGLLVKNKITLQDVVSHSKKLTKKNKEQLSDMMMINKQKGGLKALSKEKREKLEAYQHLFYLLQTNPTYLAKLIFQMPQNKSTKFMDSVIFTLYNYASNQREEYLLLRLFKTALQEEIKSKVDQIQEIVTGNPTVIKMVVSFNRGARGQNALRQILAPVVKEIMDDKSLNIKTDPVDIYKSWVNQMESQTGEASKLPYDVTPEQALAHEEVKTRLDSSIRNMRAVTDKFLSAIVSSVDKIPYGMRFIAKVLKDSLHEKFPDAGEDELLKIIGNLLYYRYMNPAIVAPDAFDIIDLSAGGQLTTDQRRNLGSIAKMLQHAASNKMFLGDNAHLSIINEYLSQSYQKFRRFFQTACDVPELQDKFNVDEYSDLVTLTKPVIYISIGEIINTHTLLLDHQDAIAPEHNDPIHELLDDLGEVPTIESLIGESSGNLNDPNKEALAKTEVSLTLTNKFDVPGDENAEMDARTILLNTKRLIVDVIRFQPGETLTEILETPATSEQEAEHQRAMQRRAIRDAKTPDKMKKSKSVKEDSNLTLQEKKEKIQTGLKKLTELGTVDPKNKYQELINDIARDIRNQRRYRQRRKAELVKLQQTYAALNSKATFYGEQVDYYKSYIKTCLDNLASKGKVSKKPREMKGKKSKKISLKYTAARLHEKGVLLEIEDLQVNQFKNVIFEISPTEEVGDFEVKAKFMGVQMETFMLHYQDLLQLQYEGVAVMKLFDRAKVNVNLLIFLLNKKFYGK
The assay can be described thus: HTRF IQGAP1-Cdc42 binding assay (validation / confirmatory). To be noted: 50 nM His-Cdc42-Q61L, 1.5 nM GST-IQGAP1-C. How it is done: Recombinant His-Cdc42-Q61L, GST-IQGAP1-C in combination with acceptor XL665 conjugated anti-His antibody (Anti-His-XL665) and donor Eu-cryptate conjugated anti-GST antibody (anti-GST-cryptate) were used for the HTRF assay to perform a high throughput screening of compound libraries in 1536-well white solid bottom medium-binding plates (Greiner Bio-One).
For the assay, His-Cdc42-Q61L and GST-IQGAP1-C proteins were diluted and pre-mixed in the binding buffer (50 mM Tris, pH 7.5, 150 mM NaCl and 0.01% Triton-X100) to final assay concentrations of 50 nM His-Cdc42-Q61L and 1.5 nM GST-IQGAP1-C. As control, 1.5 nM GST-IQGAP1-C in the absence of His-Cdc42-Q61L was used to gauge the maximal potential inhibition (IC100). Anti-His-XL665 and anti-GST-cryptate antibodies were prepared as threefold concentrated working mixture in binding buffer just prior to dispensing, with final assay concentrations of 5 ng/μL and 0.7 ng/µL, respectively. Pre-mixed proteins (4 µL/well) were dispensed to assay plates with a BioRAPTR FRD™ dispenser. […] The signal was detected immediately with an Envision plate reader (Perkin Elmer) using the HTRF settings (excitation at 340 nm, dual emission at 665 nm and 620 nm). […] The data were calculated as the ratio 665/620 × 10^4 to normalize for any effects in the donor channel. […]

This note sets out measurements from publication PMC9576799, “Discovery of small molecule inhibitors that effectively disrupt IQGAP1-Cdc42 interaction in breast cancer cells” (Scientific Reports, 2022).

Usually EC50 stands for the concentration that produces a half-maximal response.

`Cc1cccc(NC(=O)c2c(NC(=O)C(F)(F)F)sc3c2CCCCC3)c1` [NCGC00098561]: the half-maximal effective concentration (EC50) worked out at 7.94 µM. Besides, the Emax (3 h, read-out: efficacy, HTRF validation assay) was 84%.
